Results from US20170290774A1, “NEUROKININ-1 RECEPTOR ANTAGONIST COMPOSITION FOR TREATMENT OF DISEASES AND CONDITIONS OF THE RESPIRATORY TRACT” (PLUS VITECH, S.L., priority 2014, published 2017).

Columns and labels:
[1] = test system: MMP-14; experiment: Immunohistochemistry of MMP-14 in respiratory tract tissue of sodium hypochlorite aerosol-treated rabbits; format: in vivo, New Zealand albino rabbits
From the text: (§1) It is known that the factors TGF-α, TGF-β 1, TGF-β 2, TGF-β 3, SPARC, MMP-3; MMP-7, MMP-9, MMP-11, MMP-13 and MMP-14, TGF-β, NF-kB, EGF, MMP-9, VEGF and TNF-α which are produced by lung cells (pneumocytes, fibroblasts and vascular endothelial cells) and inflammatory cells (macrophages, lymphocytes and polymorphonuclear leukocytes) are involved in the pathophysiology and development of said respiratory tract diseases. […] Herein, 27 New Zealand albino rabbits (New Zealand White Rabbit) with an initial average weight about 3 kg were used in this example. All subjects were administered an aerosol of a solution consisting of a mixture of water and sodium hypochlorite (35 g sodium hypochlorite per liter of water) at a rate of 5 mL of said solution by inhalation three times a day for 7 days (days 1 to 7 of experimentation). Subsequently, from days 3 to 7, a group of 3 rabbits (Group 1) was administered an oral dose of 10 mg/kg body weight per day, another group of 3 rabbits (Group 2) was administered an oral dose of 40 mg/kg body weight per day, a third group (Group 3) was administered an oral dose of 80 mg/kg body weight per day and a fourth group (Group 4) was administered an oral dose of 100 mg/kg body weight per day. […] This mixture was administered as an aerosol by inhalation, also from days 3 to 7, to a group of 3 rabbits (group 5) at a dose of 0.05 mg/kg body weight per day, to another group of three rabbits (Group 6) at a dose of 0.1 mg/kg body weight per day, to another group of three rabbits (Group 7) at a dose of 0.2 mg/kg body weight per day and to another group of three rabbits (Group 8) at a dose of 0.4 mg/kg body weight per day. A placebo consisting only of olive oil was administered from days 3 to 7 to a control group of 3 rabbits (placebo group). In parallel, 3 rabbits were kept under identical conditions but were not administered any treatment nor the aforementioned sodium hypochlorite solution (control group). […] On day 7 of the experiment all animals were euthanized and necropsied. […] Samples were taken at the peripheral level of the lung parenchyma, just below the pleural surface. Tissue samples were also taken from the nasal cavity, pharynx, larynx and bronchi. Immunohistochemistry studies were performed for all samples to evaluate the levels of the markers TGF-α, TGF-β 1, TGF-β 2, TGF-β 3 SPARC, MMP-3; MMP-7, MMP-9, MMP-11, MMP-14, TGF-β, TNF-α and VEGF. In said immunohistochemistry studies, a sample of each sample was dehydrated by treatment with increasing concentrations of ethanol and finally xylene. Subsequently said dried samples were embedded in paraffin, thus creating a block. Said paraffin blocks were cut on a microtome to a thickness of 5 μm, and the resulting sections (slices) were placed on slides suitable for conducting immunohistochemistry techniques. Subsequently, the sections were deparaffinised by immersion in xylene and then rehydrated through immersion in a series of solutions containing decreasing concentrations of ethanol and, finally, water. […] The samples were then allowed to cool to room temperature over 10 minutes. Endogenous peroxidase activity was blocked by treatment with 3% hydrogen peroxide over 30 min at room temperature. […] In order to verify the expression of NK1 receptors, the cell samples were incubated in the presence of anti-NK1 antibodies ([…], Sigma-Aldrich) diluted 1:1000 at 4° C. overnight. After this time they were washed in 0.05M Tris buffer at room temperature. Subsequently, Envision System-HRP (Dako) reagents were added for 30 min at room temperature. Once this time had expired, the samples were again washed with 0.05 M Tris buffer, and immunoreactivity was visualized by light microscopy with a chromogenic solution with 3,3'-diaminobenzidine (DAB+; Dako, USA). In order to differentiate the cell nuclei, these were lightly stained with haematoxylin. Samples that were not incubated with the primary antibody, but wherein this was replaced by a non-immune serum were used as negative controls. […]

[2] = test system: MMP-9; experiment: Immunohistochemistry of MMP-9 in respiratory tract tissue of sodium hypochlorite aerosol-treated rabbits; format: in vivo, New Zealand albino rabbits
From the text: as §1

[3] = bronchial tissue, Group 1, oral 10 mg/kg per day
[4] = bronchial tissue, Group 2, oral 40 mg/kg per day
[5] = bronchial tissue, Group 3, oral 80 mg/kg per day
[6] = bronchial tissue, Group 4, oral 100 mg/kg per day
[7] = laryngeal tissue, Group 1, oral 10 mg/kg per day
[8] = laryngeal tissue, Group 2, oral 40 mg/kg per day
[9] = laryngeal tissue, Group 3, oral 80 mg/kg per day
[10] = laryngeal tissue, Group 4, oral 100 mg/kg per day
[11] = laryngeal tissue, Group 5, inhalation 0.05 mg/kg per day
[12] = laryngeal tissue, Group 6, inhalation 0.1 mg/kg per day
[13] = laryngeal tissue, Group 7, inhalation 0.2 mg/kg per day
[14] = laryngeal tissue, Group 8, inhalation 0.4 mg/kg per day
[15] = lung tissue, Group 1, oral 10 mg/kg per day
[16] = lung tissue, Group 2, oral 40 mg/kg per day
[17] = lung tissue, Group 3, oral 80 mg/kg per day
[18] = lung tissue, Group 4, oral 100 mg/kg per day
[19] = lung tissue, Group 5, inhalation 0.05 mg/kg per day
[20] = lung tissue, Group 6, inhalation 0.1 mg/kg per day
[21] = lung tissue, Group 7, inhalation 0.2 mg/kg per day
[22] = lung tissue, Group 8, inhalation 0.4 mg/kg per day
[23] = nasal cavity tissue, Group 1, oral 10 mg/kg per day
[24] = nasal cavity tissue, Group 2, oral 40 mg/kg per day
[25] = nasal cavity tissue, Group 3, oral 80 mg/kg per day
[26] = nasal cavity tissue, Group 4, oral 100 mg/kg per day
[27] = nasal cavity tissue, Group 5, inhalation 0.05 mg/kg per day
[28] = nasal cavity tissue, Group 6, inhalation 0.1 mg/kg per day
[29] = nasal cavity tissue, Group 7, inhalation 0.2 mg/kg per day
[30] = nasal cavity tissue, Group 8, inhalation 0.4 mg/kg per day
[31] = pharyngeal tissue, Group 1, oral 10 mg/kg per day
[32] = pharyngeal tissue, Group 2, oral 40 mg/kg per day
[33] = pharyngeal tissue, Group 3, oral 80 mg/kg per day
[34] = pharyngeal tissue, Group 4, oral 100 mg/kg per day
[35] = pharyngeal tissue, Group 5, inhalation 0.05 mg/kg per day
[36] = pharyngeal tissue, Group 6, inhalation 0.1 mg/kg per day
[37] = pharyngeal tissue, Group 7, inhalation 0.2 mg/kg per day
[38] = pharyngeal tissue, Group 8, inhalation 0.4 mg/kg per day

SMILES: C[C@@H](OC1OCCN(Cc2nc(=O)[nH][nH]2)C1c1ccc(F)cc1)c1cc(C(F)(F)F)cc(C(F)(F)F)c1 (stereo in doubt) [Aprepitant, 5-([(2R,3S)-2-((R)-1-[3,5-bis(trifluoromethyl)phenyl]ethoxy)-3-(4-fluorophenyl)morpholino]methyl)-1H-1,2,4-triazol-3(2H)-one]
- Percent increase in MMP-14 with respect to the control group [1, 3]: 567.32%
- Percent increase in MMP-14 with respect to the control group [1, 4]: 434.45%
- Percent increase in MMP-14 with respect to the control group [1, 5]: 325.56%
- Percent increase in MMP-14 with respect to the control group [1, 6]: 312.56%
- % Med G5/C: percent increase in marker MMP-14 with respect to the control group ([1]; bronchial tissue, Group 5): 458.45%
- % Med G6/C: percent increase in marker MMP-14 with respect to the control group ([1]; bronchial tissue, Group 6): 342.32%
- % Med G7/C: percent increase in marker MMP-14 with respect to the control group ([1]; bronchial tissue, Group 7): 246.47%
- % Med G8/C: percent increase in marker MMP-14 with respect to the control group ([1]; bronchial tissue, Group 8): 164.63%
- Percent increase in MMP-14 with respect to the control group [1, 7]: 678.45%
- Percent increase in MMP-14 with respect to the control group [1, 8]: 567.34%
- Percent increase in MMP-14 with respect to the control group [1, 9]: 459.43%
- Percent increase in MMP-14 with respect to the control group [1, 10]: 387.34%
- Percent increase in MMP-14 with respect to the control group [1, 11]: 639.34%
- Percent increase in MMP-14 with respect to the control group [1, 12]: 543.12%
- Percent increase in MMP-14 with respect to the control group [1, 13]: 342.23%
- Percent increase in MMP-14 with respect to the control group [1, 14]: 201.28%
- Percent increase in MMP-14 with respect to the control group [1, 15]: 683.47%
- Percent increase in MMP-14 with respect to the control group [1, 16]: 569.37%
- Percent increase in MMP-14 with respect to the control group [1, 17]: 441.85%
- Percent increase in MMP-14 with respect to the control group [1, 18]: 354.84%
- Percent increase in MMP-14 with respect to the control group [1, 19]: 769.70%
- Percent increase in MMP-14 with respect to the control group [1, 20]: 323.25%
- Percent increase in MMP-14 with respect to the control group [1, 21]: 184.50%
- Percent increase in MMP-14 with respect to the control group [1, 22]: 153.36%
- Percent increase in MMP-14 with respect to the control group [1, 23]: 1,016.51%
- Percent increase in MMP-14 with respect to the control group [1, 24]: 680.45%
- Percent increase in MMP-14 with respect to the control group [1, 25]: 412.64%
- Percent increase in MMP-14 with respect to the control group [1, 26]: 317.68%
- Percent increase in MMP-14 with respect to the control group [1, 27]: 1,190.13%
- Percent increase in MMP-14 with respect to the control group [1, 28]: 510.81%
- Percent increase in MMP-14 with respect to the control group [1, 29]: 206.80%
- Percent increase in MMP-14 with respect to the control group [1, 30]: 149.00%
- Percent increase in MMP-14 with respect to the control group [1, 31]: 1,148.43%
- Percent increase in MMP-14 with respect to the control group [1, 32]: 980.64%
- Percent increase in MMP-14 with respect to the control group [1, 33]: 762.45%
- Percent increase in MMP-14 with respect to the control group [1, 34]: 560.45%
- Percent increase in MMP-14 with respect to the control group [1, 35]: 1,091.23%
- Percent increase in MMP-14 with respect to the control group [1, 36]: 709.21%
- Percent increase in MMP-14 with respect to the control group [1, 37]: 245.45%
- Percent increase in MMP-14 with respect to the control group [1, 38]: 135.00%
- Percent increase in MMP-9 with respect to the control group [2, 3]: 749.34%
- Percent increase in MMP-9 with respect to the control group [2, 4]: 672.94%
- Percent increase in MMP-9 with respect to the control group [2, 5]: 495.87%
- Percent increase in MMP-9 with respect to the control group [2, 6]: 305.34%
- % Med G5/C: percent increase in marker MMP-9 with respect to the control group ([2]; bronchial tissue, Group 5): 673.45%
- % Med G6/C: percent increase in marker MMP-9 with respect to the control group ([2]; bronchial tissue, Group 6): 452.61%
- % Med G7/C: percent increase in marker MMP-9 with respect to the control group ([2]; bronchial tissue, Group 7): 325.54%
- % Med G8/C: percent increase in marker MMP-9 with respect to the control group ([2]; bronchial tissue, Group 8): 153.34%
- Percent increase in MMP-9 with respect to the control group [2, 7]: 1,290.89%
- Percent increase in MMP-9 with respect to the control group [2, 8]: 983.98%
- Percent increase in MMP-9 with respect to the control group [2, 9]: 898.18%
- Percent increase in MMP-9 with respect to the control group [2, 10]: 788.78%
- Percent increase in MMP-9 with respect to the control group [2, 11]: 989.34%
- Percent increase in MMP-9 with respect to the control group [2, 12]: 567.37%
- Percent increase in MMP-9 with respect to the control group [2, 13]: 256.47%
- Percent increase in MMP-9 with respect to the control group [2, 14]: 123.23%
- Percent increase in MMP-9 with respect to the control group [2, 15]: 566.19%
- Percent increase in MMP-9 with respect to the control group [2, 16]: 384.44%
- Percent increase in MMP-9 with respect to the control group [2, 17]: 338.57%
- Percent increase in MMP-9 with respect to the control group [2, 18]: 326.02%
- Percent increase in MMP-9 with respect to the control group [2, 19]: 570.94%
- Percent increase in MMP-9 with respect to the control group [2, 20]: 267.29%
- Percent increase in MMP-9 with respect to the control group [2, 21]: 183.98%
- Percent increase in MMP-9 with respect to the control group [2, 22]: 156.83%
- Percent increase in MMP-9 with respect to the control group [2, 23]: 1,355.64%
- Percent increase in MMP-9 with respect to the control group [2, 24]: 768.75%
- Percent increase in MMP-9 with respect to the control group [2, 25]: 511.58%
- Percent increase in MMP-9 with respect to the control group [2, 26]: 328.92%
- Percent increase in MMP-9 with respect to the control group [2, 27]: 1,289.77%
- Percent increase in MMP-9 with respect to the control group [2, 28]: 588.48%
- Percent increase in MMP-9 with respect to the control group [2, 29]: 291.36%
- Percent increase in MMP-9 with respect to the control group [2, 30]: 143.08%
- Percent increase in MMP-9 with respect to the control group [2, 31]: 1,102.28%
- Percent increase in MMP-9 with respect to the control group [2, 32]: 945.34%
- Percent increase in MMP-9 with respect to the control group [2, 33]: 789.45%
- Percent increase in MMP-9 with respect to the control group [2, 34]: 561.21%
- Percent increase in MMP-9 with respect to the control group [2, 35]: 998.67%
- Percent increase in MMP-9 with respect to the control group [2, 36]: 505.32%
- Percent increase in MMP-9 with respect to the control group [2, 37]: 212.24%
- Percent increase in MMP-9 with respect to the control group [2, 38]: 121.23%
